“Also recorded” adds a separate entry of the source.
How the values were obtained:
adult guinea pig LVCMs = assay type: cell-based
ACMs = assay type: cell-based, guinea pig

NC1=N[C@H](O)[C@H]2[C@H]3O[C@]4(O)O[C@@H]([C@@H](O)[C@@]2(N1)[C@@H]4O)[C@]3(O)CO [TTX, tetrodotoxin]
AP overshoot (adult guinea pig LVCMs): disappeared | change in phase 4 slope and MDP (adult guinea pig LVCMs): no statistical difference | cycle length (adult guinea pig LVCMs): 328 ± 23 ms | maximal upstroke velocity of AP (adult guinea pig LVCMs): 5.3±0.6 V/s | shift in TOP (adult guinea pig LVCMs): 17 mV

CC(=O)OCC[N+](C)(C)C [acetylcholine]
MDP (adult guinea pig LVCMs): −59.0±1.0 mV | cycle length (adult guinea pig LVCMs): 293 ± 16 ms | effect on spontaneous APs (adult guinea pig LVCMs): no effect | phase 4 slope (adult guinea pig LVCMs): 241±16 mV/s

CC(C)NCC(O)c1ccc(O)c(O)c1 (centres unmarked) [isoproterenol]
MDP (adult guinea pig LVCMs): −55.5±0.7 mV | TOP (adult guinea pig LVCMs): −45.2±0.4 mV | cycle length (adult guinea pig LVCMs): 182 ± 4.1 ms | increase in firing rate (adult guinea pig LVCMs): 27% | midpoint (V1/2) of steady-state activation (adult guinea pig LVCMs): −56.9±1.6 mV | phase 4 slope (adult guinea pig LVCMs): 350±12 mV/s

ZD7288
RMP (ACMs): −47.6±1.2 mV | effect of If suppression on firing (ACMs): triggered rhythmic firing; also recorded: generated AP | APD50 (adult guinea pig LVCMs): 272 ± 31 ms | effect of ZD7288 on induced If and AP firing (adult guinea pig LVCMs): blocked; also recorded: silenced | sensitivity of Ad-CGI-HCN1-induced If to HCN blocker (adult guinea pig LVCMs): sensitive

Source: patent US20080089874A1, “DIRECTED DIFFERENTIATION AND MATURATION OF STEM CELL-DERIVED CARDIOMYOCYTES” (The Regents of the University of California, priority 2006, published 2008)
